{"source": "patent US8012414B2", "about": "“Sterilization of drugs using supercritical carbon dioxide sterilant” (Novasterilis, priority 2007, dated 2011)", "assay": "State of micro-crystalline/powder drug after supercritical CO2 sterilization with peracetic acid additive", "format": "physicochemical", "conditions": "1500 psi, 35° C., 180 minutes, Peracetic Acid 16 mL", "procedure": "For these products, the input or flow of CO2 through valve 24 into the reactor pressure vessel 22 is regulated to 0.01 to 5 psi/second. Regulating the rate of pressurization is also intended to control mass flow (1000 mg/second) of CO2 into the reactor pressure vessel 22. In the initial fill, the valve 24 is opened and allowed to flow at the regulated rate using the ambient pressure of the CO2 supply from the gas cylinder 12. The CO2 supply pressure can range from 75 psi to approximately 900 psi or greater. Once the pressure in reactor pressure vessel 22 reaches equilibrium with the CO2 supply source pressure, the pumping of the CO2 using the carbon dioxide booster 16 begins. […] Once the reactor pressure vessel 22 reaches its operating pressure of 1500 psi, the process is allowed to continue through its normal path. Upon completion of the desired time period at the operating temperature and pressure, depressurization of the reactor pressure vessel 22 then occurs. […] Regulating the rate of depressurization is also intended to control of mass flow of CO2 out of the reactor pressure vessel 22. The rate of depressurization is controlled at this rate until the ambient pressure in the reactor pressure vessel 22 is zero or at equilibrium with the atmospheric pressure. Ambient conditions are generally zero psi and 25 degrees C. […]"}
{"substance": "Methyl-Prednisone", "values": [{"measurement": "State of the Corticosteroid drug after sterilization (look and feel of powder)", "setting": "CO2 pressurization 5 psi/second, depressurization 50 psi/second", "result": "unchanged"}, {"measurement": "State of the Corticosteroid drug after sterilization (look and feel of powder)", "setting": "CO2 pressurization 75 psi/second (unrestricted), depressurization 100 psi/second", "result": "changed"}]}
